Reference: patent US20250051327A1, “MALT-1 MODULATORS” (EXSCIENTIA AI LIMITED, priority 2020, published 2025)

What was measured:
[1] = target: Recombinant human MALT-1 (amino acids 340-824) (Homo sapiens (Human), UniProt Q9UDY8); assay: MALT-1 inhibition assay (fluorogenic substrate Ac-LRSR-Rh110-DP); type: biochemical; details: recombinant human MALT-1, substrate Ac-LRSR-Rh110-DP
Procedure, shortened: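 Reactions were started with fluorogenic substrate Ac-LRSR-Rh110-DP (10 μM final) against 3 nM enzyme and kept dark at 25° C for 60 minutes. IC50 values came from 4-parameter logistic fits of percent inhibition calculated from relative fluorescence units.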

[2] = system: IL-2 secretion by human effector memory T cells (TEM); assay: Effector memory T cells IL-2 release assay; type: cell-based; details: T-cell; human CD4+ effector memory T cells, CD3/CD28 bead stimulation, 24 h; read-out: CD4TC IL2 IC50
Procedure, shortened: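 Human CD4+ effector memory T cells from healthy-donor buffy coats were stimulated with anti-CD3/CD28 Dynabeads and exposed to 10 semi-log compound doses (0.1% DMSO) for 24 h at 37 °C. Supernatant IL-2 was measured by HTRF, and IC50 came from a 4-parameter logistic fit to maximal IL-2. Viability was checked by flow cytometry.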

Chain of Recombinant human MALT-1 (amino acids 340-824) (Q9UDY8 340-824): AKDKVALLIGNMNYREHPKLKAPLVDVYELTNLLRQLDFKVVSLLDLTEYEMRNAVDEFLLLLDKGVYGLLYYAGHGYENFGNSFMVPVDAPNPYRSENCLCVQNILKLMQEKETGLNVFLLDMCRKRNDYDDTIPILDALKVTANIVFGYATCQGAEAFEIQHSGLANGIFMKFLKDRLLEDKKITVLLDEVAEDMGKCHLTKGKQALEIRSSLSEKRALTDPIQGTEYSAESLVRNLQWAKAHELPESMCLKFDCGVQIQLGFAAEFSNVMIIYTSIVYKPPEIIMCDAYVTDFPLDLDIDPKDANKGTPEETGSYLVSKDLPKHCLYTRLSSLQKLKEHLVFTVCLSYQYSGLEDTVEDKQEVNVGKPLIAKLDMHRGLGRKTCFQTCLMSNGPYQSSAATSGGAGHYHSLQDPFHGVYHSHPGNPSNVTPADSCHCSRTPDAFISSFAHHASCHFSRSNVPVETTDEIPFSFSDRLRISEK

Q: For CN(C(=O)[C@H]1CNC(=O)C1)[C@@H](c1ccc(N2CCCc3c2cnc2cc(Cl)nn32)cc1)C(F)(F)F (stereo in doubt) [CPD0073564, (3rel-R)—N-[(1S)-1-(4-{4-chloro-2,3,7,10-tetraazatricyclo[7.4.0.0^2,6]trideca-1(9),3,5,7-tetraen-10-v}phenyl)-2,2,2-trifluoroethyl]-N-methyl-5-oxopyrrolidine-3-carboxamide], which IC50 [1] is on record?
A: 53 nM

Q: And the IC50 [2]?
A: 250 nM

Q: With CN(C(=O)[C@@H]1CNC(=O)C1)[C@@H](c1ccc(N2CCCc3c2cnc2cc(Cl)nn32)cc1)C(F)(F)F (stereo in doubt) [CPD0073565, (3rel-S)—N-[(1S)-1-(4-{4-chloro-2,3,7,10-tetraazatricyclo[7.4.0.0^2,6]trideca-1(9),3,5,7-tetraen-10-yl}phenyl)-2,2,2-trifluoroethyl]-N-methyl-5-oxopyrrolidine-3-carboxamide] as the molecule, how does the IC50 [1] read?
A: 43 nM

Q: What about the IC50 [2] of the same molecule?
A: 101 nM

Q: With Cc1cn2ncc(Nc3ccc([C@H](N(C)C(=O)C4CCS(=O)(=O)CC4)C(F)(F)F)cc3)cc2n1 [CPD0018617, N-methyl-1,1-dioxo-N-[(1S)-2,2,2-trifluoro-1-[4-({2-methylimidazo[1,2-b]pyridazin-7-yl}amino)phenyl]ethyl]-1λ^6-thiane-4-carboxamide] as the molecule, how does the IC50 [1] read?
A: 598 nM

Q: And the IC50 [2]?
A: 386 nM

Q: COc1ccc2ncc(Nc3ccc([C@H](N(C)C(=O)C4CCS(=O)(=O)CC4)C(F)(F)F)cc3)cc2n1 [CPD0018619, N-methyl-1,1-dioxo-N-[(1S)-2,2,2-trifluoro-1-[4-[(6-methoxy-1,5-naphthyridin-3-yl)amino]phenyl]ethyl]thiane-4-carboxamide] was tested. Which IC50 [1] did it give?
A: 361 nM

Q: And the IC50 [2]?
A: 190 nM

Q: For COc1ccc2ncc(Nc3ccc([C@H](N(C)C(=O)C4CCS(=O)(=O)CC4)C(F)(F)F)cc3)c(C(C)OC)c2n1 (stereo partly drawn) [CPD0019079, N-methyl-1,1-dioxo-N-[(1S)-2,2,2-trifluoro-1-(4-{[6-methoxy-4-(1-methoxyethyl)-1,5-naphthyridin-3-yl]amino}phenyl)ethyl]-1λ^6-thiane-4-carboxamide], which IC50 [1] is on record?
A: 147 nM

Q: What about the IC50 [2] of the same molecule?
A: 102 nM

Q: What does the source list for O=C(Nc1cnc(-n2nccn2)c(Cl)c1)c1cnn(-c2cccc3ncccc23)c1NCCCCl [CPD0019183]?
A: IC50 [1]: 464 nM; IC50 [2]: 10000 nM

Q: What does the source list for CN(C(=O)C1CCS(=O)(=O)CC1)[C@@H](c1ccc(N2CCCc3c2cnc2cc(Cl)nn32)cc1)C(F)(F)F [CPD0019184, N-[(1S)-1-(4-{4-chloro-2,3,7,10-tetraazatricyclo[7.4.0.0^2,6]trideca-1(9),3,5,7-tetraen-10-yl}phenyl)-2,2,2-trifluoroethyl]-N-methyl-1,1-dioxo-1λ^6-thiane-4-carboxamide]?
A: IC50 [1]: 59 nM; IC50 [2]: 68 nM

Q: Which results are given for CC(C)C(=O)N(C)[C@@H](c1ccc(N2CCCc3c2cnc2cc(Cl)nn32)cc1)C(F)(F)F [CPD0019340, N-[(1S)-1-(4-{4-chloro-2,3,7,10-tetraazatricyclo[7.4.0.0^2,6]trideca-1(9),3,5,7-tetraen-10-yl}phenyl)-2,2,2-trifluoroethyl]-N,2-dimethylpropanamide]?
A: IC50 [1]: 130 nM; IC50 [2]: 139 nM

Q: How did the IC50 [1] turn out when CN(C(=O)CO)[C@@H](c1ccc(N2CCCc3c2cnc2cc(Cl)nn32)cc1)C(F)(F)F [CPD0019341, N-[(1S)-1-[4-(4-chloro-2,3,7,10-tetrazatricyclo[7.4.0.0^2,6]trideca-1(9),3,5,7-tetraen-10-yl)phenyl]-2,2,2-trifluoro-ethyl]-2-hydroxy-N-methyl-acetamide] was run?
A: 200 nM

Q: What about the IC50 [2] of the same molecule?
A: 104 nM

Q: What does the source list for CN(C(=O)CC#N)[C@@H](c1ccc(N2CCCc3c2cnc2cc(Cl)nn32)cc1)C(F)(F)F [CPD0019342, N-[(1S)-1-(4-{4-chloro-2,3,7,10-tetraazatricyclo[7.4.0.0^2,6]trideca-1(9),3,5,7-tetraen-10-yl}phenyl)-2,2,2-trifluoroethyl]-2-cyano-N-methylacetamide]?
A: IC50 [1]: 170 nM; IC50 [2]: 96 nM

Q: With CN(C(=O)c1cncn1C)[C@@H](c1ccc(N2CCCc3c2cnc2cc(Cl)nn32)cc1)C(F)(F)F [CPD0019344, N-[(1S)-1-(4-{4-chloro-2,3,7,10-tetraazatricyclo[7.4.0.0^2,6]trideca-1(9),3,5,7-tetraen-10-yl}phenyl)-2,2,2-trifluoroethyl]-N,1-dimethyl-1H-imidazole-5-carboxamide] as the molecule, how does the IC50 [1] read?
A: 213 nM

Q: What about the IC50 [2] of the same molecule?
A: 295 nM

Q: For Cc1ncc(C(=O)N(C)[C@@H](c2ccc(N3CCCc4c3cnc3cc(Cl)nn43)cc2)C(F)(F)F)n1C [CPD0019346, N-[(1S)-1-(4-{4-chloro-2,3,7,10-tetraazatricyclo[7.4.0.0^2,6]trideca-1(9),3,5,7-tetraen-10-yl}phenyl)-2,2,2-trifluoroethyl]-N,1,2-trimethyl-1H-imidazole-5-carboxamide], which IC50 [1] is on record?
A: 535 nM

Q: What about the IC50 [2] of the same molecule?
A: 720 nM

Q: Which IC50 [1] does the source give for Cc1nn(C)cc1C(=O)N(C)[C@@H](c1ccc(N2CCCc3c2cnc2cc(Cl)nn32)cc1)C(F)(F)F [CPD0019347, N-[(1S)-1-(4-{4-chloro-2,3,7,10-tetraazatricyclo[7.4.0.0^2,6]trideca-1(9),3,5,7-tetraen-10-yl}phenyl)-2,2,2-trifluoroethyl]-N,1,3-trimethyl-1H-pyrazole-4-carboxamide] here?
A: 244 nM

Q: And the IC50 [2]?
A: 132 nM

Q: Cc1ncc(C(=O)N(C)[C@@H](c2ccc(N3CCCc4c3cnc3cc(Cl)nn43)cc2)C(F)(F)F)s1 [CPD0019348, N-[(1S)-1-(4-{4-chloro-2,3,7,10-tetraazatricyclo[7.4.0.0^2,6]trideca-1(9),3,5,7-tetraen-10-yl}phenyl)-2,2,2-trifluoroethyl]-N,2-dimethyl-1,3-thiazole-5-carboxamide] was tested. Which IC50 [1] did it give?
A: 193 nM

Q: What about the IC50 [2] of the same molecule?
A: 157 nM

Q: With CC(=O)N(C)[C@@H](c1ccc(N2CCCc3c2cnc2cc(Cl)nn32)cc1)C(F)(F)F [CPD0019349, N-[(1S)-1-(4-{4-chloro-2,3,7,10-tetraazatricyclo[7.4.0.0^2,6]trideca-1(9),3,5,7-tetraen-10-yl}phenyl)-2,2,2-trifluoroethyl]-N-methylacetamide] as the molecule, how does the IC50 [1] read?
A: 230 nM

Q: What about the IC50 [2] of the same molecule?
A: 83 nM

Q: How did the IC50 [1] turn out when CN(C(=O)Cc1ccccc1O)[C@@H](c1ccc(N2CCCc3c2cnc2cc(Cl)nn32)cc1)C(F)(F)F [CPD0019350, N-[(1S)-1-(4-{4-chloro-2,3,7,10-tetraazatricyclo[7.4.0.0^2,6]trideca-1(9),3,5,7-tetraen-10-yl}phenyl)-2,2,2-trifluoroethyl]-2-(2-hydroxyphenyl)-N-methylacetamide] was run?
A: 70 nM

Q: What about the IC50 [2] of the same molecule?
A: 103 nM

Q: Which IC50 [1] does the source give for Cc1ncsc1C(=O)N(C)[C@@H](c1ccc(N2CCCc3c2cnc2cc(Cl)nn32)cc1)C(F)(F)F [CPD0019351, N-[(1S)-1-(4-{4-chloro-2,3,7,10-tetraazatricyclo[7.4.0.0^2,6]trideca-1(9),3,5,7-tetraen-10-yl}phenyl)-2,2,2-trifluoroethyl]-N,4-dimethyl-1,3-thiazole-5-carboxamide] here?
A: 278 nM

Q: What about the IC50 [2] of the same molecule?
A: 152 nM

Q: What does the source list for CN(C(=O)c1nn(C)cc1Cl)[C@@H](c1ccc(N2CCCc3c2cnc2cc(Cl)nn32)cc1)C(F)(F)F [CPD0019352, 4-chloro-N-[(1S)-1-(4-{4-chloro-2,3,7,10-tetraazatricyclo[7.4.0.0^2,6]trideca-1(9),3,5,7-tetraen-10-yl}phenyl)-2,2,2-trifluoroethyl]-N,1-dimethyl-1H-pyrazole-3-carboxamide]?
A: IC50 [1]: 196 nM; IC50 [2]: 417 nM
